We go through one compound from ChEMBL document CHEMBL3639324, “Meta-substituted phenyl sulfonyl amides of secondary amino acid amides, the production thereof, and use thereof as matriptase inhibitors” (2013).

A word on the pKi: it is the negative decadic logarithm of the Ki, by convention in mol/L. Higher therefore signals a small Ki.

The target in the assay is T1, Suppressor of tumorigenicity 14 protein (Homo sapiens, UniProt Q9Y5Y6).
T1 sequence (Q9Y5Y6 whole entry): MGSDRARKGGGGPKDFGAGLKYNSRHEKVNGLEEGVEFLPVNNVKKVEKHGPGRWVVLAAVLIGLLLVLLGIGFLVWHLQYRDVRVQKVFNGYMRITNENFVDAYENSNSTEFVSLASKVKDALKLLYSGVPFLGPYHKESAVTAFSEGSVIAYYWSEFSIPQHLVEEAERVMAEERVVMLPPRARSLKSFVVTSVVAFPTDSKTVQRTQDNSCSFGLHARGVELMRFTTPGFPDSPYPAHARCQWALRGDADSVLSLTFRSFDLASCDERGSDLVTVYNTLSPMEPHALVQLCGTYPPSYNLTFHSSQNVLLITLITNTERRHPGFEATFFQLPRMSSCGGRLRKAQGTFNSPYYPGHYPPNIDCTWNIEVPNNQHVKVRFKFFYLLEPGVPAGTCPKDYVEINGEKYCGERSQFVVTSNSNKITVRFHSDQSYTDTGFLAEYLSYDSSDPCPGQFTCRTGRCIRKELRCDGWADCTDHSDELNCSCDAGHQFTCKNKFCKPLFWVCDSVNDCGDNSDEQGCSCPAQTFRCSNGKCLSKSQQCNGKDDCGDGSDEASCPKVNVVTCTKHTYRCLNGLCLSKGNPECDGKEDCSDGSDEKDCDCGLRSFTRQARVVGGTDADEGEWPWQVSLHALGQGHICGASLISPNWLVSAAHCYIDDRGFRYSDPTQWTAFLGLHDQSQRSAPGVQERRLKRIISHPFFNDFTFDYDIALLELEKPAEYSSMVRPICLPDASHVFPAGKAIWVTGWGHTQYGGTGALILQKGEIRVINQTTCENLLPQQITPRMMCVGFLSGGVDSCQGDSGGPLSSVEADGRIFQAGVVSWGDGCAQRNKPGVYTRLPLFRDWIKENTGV
The assay is described as follows: Inhibition Assay: Inhibition assay using matriptase enzyme.

pKi: −log10 of the molar value.

Turning to `CNC(=O)CCCC1CCN(C(=O)[C@H](Cc2cccc(C(=N)N)c2)NS(=O)(=O)c2cccc(N3CCNCC3=O)c2)CC1`, the pKi was 7.62.
